Results: BigSolDB 2.1

CO[C@H]1/C=C/O[C@@]2(C)Oc3c(C)c(O)c4c(O)c(c(/C=N/N5CCN(C6CCCC6)CC5)c(O)c4c3C2=O)NC(=O)/C(C)=C\C=C\[C@H](C)[C@H](O)[C@@H](C)[C@@H](O)[C@@H](C)[C@H](OC(C)=O)[C@@H]1C
solubility (mole fraction)
Conditions	278.15 K	283.15 K	288.15 K	293.15 K	297.15 K	303.15 K	308.15 K	313.15 K	318.15 K	323.15 K
in acetone	0.000523	0.00053	0.000536	0.000549	0.000563	0.000576	0.000609	0.000635	0.000668	0.000701
in chloroform	0.0254	0.0265	0.0281	0.0287	0.0293	0.0299	0.0308	0.0316	0.0326	0.0334
in dichloromethane	0.0159	0.0165	0.0175	0.0184	0.0196	0.0209	0.0224	–	–	–
in ethanol	0.000515	0.000525	0.000541	0.000562	0.000583	0.000604	0.000625	0.000651	0.000677	0.000703
in methanol	0.022	0.0224	0.0229	0.0235	0.0242	0.0249	0.0257	0.0267	0.0278	0.029
